As usually defined, the mortality is the percentage killed.

These results are taken from US6346542B1, “Pesticidal composition comprising enantiomeric form of fipronil” (priority 1999, dated 2002).

For data set [1], the system named is dogs. As to the kind of experiment: Emesis after oral administration. Type of data set: in vivo, dog. The conditions noted are these: for emetic activity on oral administration: oral administration to animals, dose not stated; for dogs showing emesis: 20 mg/kg oral capsule, within 5 hours after administration. The protocol:
Another unexpected substantial advantage is that the (S) enantiomer provides a substantial reduction in emesis when administered to an animal orally. By the term “emesis” is meant vomiting. Generally, an emetic substance elicits emesis in less than 24 hours after administration, usually less than 8 hours, more usually less than 2 hours.

Data set [2] relates to dogs. To be noted: 10 mg/kg in dogs.
Data set [3] concerns cat fleas (Ctenocephalides felis). In words: Oral efficacy against cat fleas on infested dogs. Type of data set: in vivo.
The subject of data set [4] is brown dog ticks (Rhipicephalus sanguineus). As to the kind of experiment: Oral efficacy against brown dog ticks on infested dogs. The conditions noted are these: for ticks remaining: 23 days after administration.

The structures appear in SMILES notation.

Regarding `N#Cc1nn(-c2c(Cl)cc(C(F)(F)F)cc2Cl)c(N)c1[S+]([O-])C(F)(F)F` (racemic) [fipronil, 5-amino-3-cyano-1-(2,6-dichloro-4-trifluoromethylphenyl)-4-trifluoromethylsulfinylpyrazole], in the data set with dogs [1], the “emetic activity on oral administration” value is “causes emesis”.
`CC(=O)Nc1c([S@@+]([O-])C(F)(F)F)c(C#N)nn1-c1c(Cl)cc(C(F)(F)F)cc1Cl` (single isomer, unassigned) [5-acetylamino (R) enantiomer] had a mortality in the data set on dogs [2] of 33%.
For the compound `N#Cc1nn(-c2c(Cl)cc(C(F)(F)F)cc2Cl)c(N)c1[S@+]([O-])C(F)(F)F` [Compound B, (S)-5-amino-3-cyano-1-(2,6-dichloro-4-trifluoromethylphenyl)-4-trifluoromethylsulfinylpyrazole], the “per cent (%) mortality of the arthropods, Flea” value (from here on “per cent (%) mortality … Flea”) in data set [3] (1 mg/kg oral, 1 DAT) worked out at 100%; in data set [3] (1 mg/kg oral, 9 DAT), 100%; in data set [3] (1 mg/kg oral, 16 DAT) it was 90%; in data set [3] (1 mg/kg oral, 23 DAT) it was 79%; in data set [3] (3 mg/kg oral, 1 DAT), 100%; in data set [3] (3 mg/kg oral, 9 DAT) it was 98%. The “per cent (%) mortality … Flea” value in data set [3] (3 mg/kg oral, 16 DAT) came out at 67%; in data set [3] (3 mg/kg oral, 23 DAT) it was 50%; in data set [3] (10 mg/kg oral, 1 DAT), 100%; in data set [3] (10 mg/kg oral, 9 DAT), 99%; in data set [3] (10 mg/kg oral, 16 DAT), 87%; in data set [3] (10 mg/kg oral, 23 DAT) it was 83%. Besides, the “per cent (%) mortality … Flea” value is reported as 100% in data set [3] (20 mg/kg oral capsule, 1 DAT); 96% in data set [3] (20 mg/kg oral capsule, 9 DAT); 86% in data set [3] (20 mg/kg oral capsule, 16 DAT); 88% in data set [3] (20 mg/kg oral capsule, 23 DAT); 84% in data set [3] (20 mg/kg oral capsule, 31 DAT). This compound also came in with a dogs showing emesis in the data set with dogs [1] of 50%. For the same compound, in the data set on dogs [1], the “emetic activity on oral administration” value was “lower emetic activity”. For the same compound, the symptoms of emesis entry with dogs [1] (oral, dogs, at any rate (1, 3, 10 mg/kg)) is listed as “substantially no symptoms of emesis”. Also, the “per cent (%) mortality of the arthropods, Tick” value in data set [4] (1 mg/kg oral, 1 DAT) is on record as 100%; in data set [4] (1 mg/kg oral, 9 DAT) it was 100%; in data set [4] (1 mg/kg oral, 16 DAT) it was 87%; in data set [4] (1 mg/kg oral, 23 DAT) it was 85%; in data set [4] (3 mg/kg oral, 1 DAT), 98%; in data set [4] (3 mg/kg oral, 9 DAT) it was 99%. Also, the “per cent (%) mortality of the arthropods, Tick” value is on record as 75% in data set [4] (3 mg/kg oral, 16 DAT); 63% in data set [4] (3 mg/kg oral, 23 DAT); 99% in data set [4] (10 mg/kg oral, 1 DAT); 100% in data set [4] (10 mg/kg oral, 9 DAT); 85% in data set [4] (10 mg/kg oral, 16 DAT); 99% in data set [4] (20 mg/kg oral capsule, 1 DAT). For the same compound, the “per cent (%) mortality of the arthropods, Tick” value in data set [4] (20 mg/kg oral capsule, 9 DAT) was determined as 97%; in data set [4] (20 mg/kg oral capsule, 16 DAT) it was 87%; in data set [4] (20 mg/kg oral capsule, 23 DAT) it was 86%; in data set [4] (20 mg/kg oral capsule, 31 DAT) it was 92%. Also, the “per cent (%) mortality of the arthropods, Tick (effectiveness)” value in data set [4] (10 mg/kg oral, 23 DAT) worked out at 85%. In addition, the ticks remaining in data set [4] (10 mg/kg oral) is on record as 15%.
In the case of `N#Cc1nn(-c2c(Cl)cc(C(F)(F)F)cc2Cl)c(N)c1[S@@+]([O-])C(F)(F)F` [Compound C, (R)-5-amino-3-cyano-1-(2,6-dichloro-4-trifluoromethylphenyl)-4-trifluoromethylsulfinylpyrazole], the “per cent (%) mortality … Flea” value in data set [3] (1 mg/kg oral, 1 DAT) is on record as 100%; in data set [3] (1 mg/kg oral, 9 DAT), 100%; in data set [3] (1 mg/kg oral, 16 DAT) it was 76%; in data set [3] (1 mg/kg oral, 23 DAT), 72%; in data set [3] (3 mg/kg oral, 1 DAT) it was 100%; in data set [3] (3 mg/kg oral, 9 DAT), 78%. Further, the “per cent (%) mortality … Flea” value amounted to 72% in data set [3] (3 mg/kg oral, 16 DAT); 64% in data set [3] (3 mg/kg oral, 23 DAT); 100% in data set [3] (10 mg/kg oral, 1 DAT); 95% in data set [3] (10 mg/kg oral, 9 DAT); 72% in data set [3] (10 mg/kg oral, 16 DAT); 86% in data set [3] (10 mg/kg oral, 23 DAT). Moreover, the “per cent (%) mortality … Flea” value is 100% in data set [3] (20 mg/kg oral capsule, 1 DAT); 86% in data set [3] (20 mg/kg oral capsule, 9 DAT); 69% in data set [3] (20 mg/kg oral capsule, 16 DAT); 67% in data set [3] (20 mg/kg oral capsule, 23 DAT); 69% in data set [3] (20 mg/kg oral capsule, 31 DAT). Further, the “animals showing emesis symptoms” value is 20% in the data set with dogs [1] (3 mg/kg oral, dogs, after 2 hours); 40% with dogs [1] (10 mg/kg oral, dogs, after 1 hour); 20% in the data set on dogs [1] (10 mg/kg oral, dogs, after 3 hours). The dogs showing emesis in the data set on dogs [1] was 90%. The “per cent (%) mortality of the arthropods, Tick” value in data set [4] (1 mg/kg oral, 1 DAT) was 100%; in data set [4] (1 mg/kg oral, 9 DAT), 100%; in data set [4] (1 mg/kg oral, 16 DAT), 66%; in data set [4] (1 mg/kg oral, 23 DAT) it was 78%; in data set [4] (3 mg/kg oral, 1 DAT), 93%; in data set [4] (3 mg/kg oral, 9 DAT), 89%. Moreover, the “per cent (%) mortality of the arthropods, Tick” value in data set [4] (3 mg/kg oral, 16 DAT) turned out to be 71%; in data set [4] (3 mg/kg oral, 23 DAT), 65%; in data set [4] (10 mg/kg oral, 1 DAT), 97%; in data set [4] (10 mg/kg oral, 9 DAT) it was 97%; in data set [4] (10 mg/kg oral, 16 DAT), 71%; in data set [4] (20 mg/kg oral capsule, 1 DAT), 97%. The “per cent (%) mortality of the arthropods, Tick” value in data set [4] (20 mg/kg oral capsule, 9 DAT) was 96%; in data set [4] (20 mg/kg oral capsule, 16 DAT), 85%; in data set [4] (20 mg/kg oral capsule, 23 DAT) it was 77%; in data set [4] (20 mg/kg oral capsule, 31 DAT), 81%. Further, the “per cent (%) mortality of the arthropods, Tick (effectiveness)” value in data set [4] (10 mg/kg oral, 23 DAT) came to 71%. Further, the ticks remaining in data set [4] (10 mg/kg oral) is recorded as 29%.
